Experimental data taken from the supplement of paper PMC10307832.

Experiments:
Assay in all cases: relative viability (nuclei count vs DMSO), 5 days (fraction); higher = more cells survive
[1] = compound: CC(C)N(CCCNC(=O)Nc1ccc(C(C)(C)C)cc1)C[C@H]1O[C@@H](n2ccc3c(N)ncnc32)[C@H](O)[C@@H]1O + C[C@@H](Oc1cc(-c2cnn(C3CCNCC3)c2)cnc1N)c1c(Cl)ccc(F)c1Cl [Crizotinib] (partner 1 µM)
Outline: (§1)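 Lung cancer cell lines were seeded in 1536-well plates and dosed by pin tool the next day, with either a single drug or a fixed anchor-drug dose combined with five library-drug doses (not always all listed) spaced in √10 steps. Five days later, one step fixed the cells and stained their nuclei (final 0.05% Triton X-100, 1% formaldehyde, 1 ug/ml Hoechst), and nuclei were counted on 4× images. Relative viability is the nuclei count in treated wells divided by the count in vehicle wells, and each value is the median of duplicate plates.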

[2] = compound: CC(C)=CC[C@@H](O)C1=CC(=O)c2c(O)ccc(O)c2C1=O [Shikonin] + Cc1nc(NC(=O)N2CCC[C@H]2C(N)=O)sc1-c1ccnc(C(C)(C)C(F)(F)F)c1 [Alpelisib] (partner 2 µM)
Outline: as §1

[3] = compound: CC(C)N(CCCNC(=O)Nc1ccc(C(C)(C)C)cc1)C[C@H]1O[C@@H](n2ccc3c(N)ncnc32)[C@H](O)[C@@H]1O + COc1cc2c(Oc3ccc(NC(=O)C4(C(=O)Nc5ccc(F)cc5)CC4)cc3F)ccnc2cc1OCCCN1CCOCC1 [Foretinib] (partner 0.25 µM)
Outline: as §1

[4] = compound: CC(C)=CC[C@@H](O)C1=CC(=O)c2c(O)ccc(O)c2C1=O [Shikonin] + Cc1nc(Nc2ncc(C(=O)Nc3c(C)cccc3Cl)s2)cc(N2CCN(CCO)CC2)n1 [Dasatinib] (partner 0.075 µM)
Outline: as §1

Cell Line	relative viability ([1]; first compound 0.08 µM)	relative viability ([1]; first compound 0.253 µM)	relative viability ([1]; first compound 0.8 µM)	relative viability ([1]; first compound 2.53 µM)	relative viability ([1]; first compound 8 µM)	relative viability ([2]; first compound 0.01 µM)	relative viability ([2]; first compound 0.1 µM)	relative viability ([2]; first compound 0.3162 µM)	relative viability ([2]; first compound 1 µM)	relative viability ([3]; first compound 0.08 µM)	relative viability ([3]; first compound 0.253 µM)	relative viability ([3]; first compound 2.53 µM)	relative viability ([3]; first compound 8 µM)	relative viability ([4]; first compound 0.01 µM)	relative viability ([4]; first compound 0.1 µM)	relative viability ([4]; first compound 0.3162 µM)	relative viability ([4]; first compound 1 µM)	relative viability ([3]; first compound 0.8 µM)
201T	1.01	1.01	1.09	1.03	1.04	0.941	1.11	0.997	1.02	1.05	1.04	1.13	1.13	0.561	0.661	0.579	0.615	
A549	0.7	0.609	0.739	0.708	0.714	0.789	0.81	0.708	0.753	0.939	1.06	0.522	0.885					1.05
A-427	0.908	0.856	0.95	0.989	0.851	1.12	1.2	1.07	1.13	1.08	1.04	1.1	0.966	0.877	0.801	0.721	0.658	1.1
ABC-1	0.816	0.926		1.26	1.13	1.17	1.3	0.901	0.514	0.92	1	1.41	1.07	0.603	0.685	0.552	0.301	
BEN	0.836	0.768	0.825	0.715	0.921	1.09	1.1	1.12	1.24	0.629	0.935	0.567	0.697	0.302	0.407	0.303	0.386	0.689
CAL-12T	0.626	0.548	0.63	0.563	0.529	1.14	1.13	1.19	1.2	1.2	1.06	1.2	0.944	0.557	0.333	0.356	0.302	1.07
COR-L23	0.601	0.724	0.765	0.755	0.574	0.845	0.913	0.86	0.719	0.843	1.02	0.986	0.962	0.482	0.49	0.532	0.462	1.02
COR-L 105	0.671	0.823	0.82	0.724	0.846	1.09	1.18	1.07	0.728	1.14	0.99	1.07	1.03	0.329	0.329	0.307	0.335	1.02
Calu-6	0.744	0.863	0.79	0.771	0.781	0.921	1.23	0.88	0.934	0.847	0.872	0.839	0.823					0.923
ChaGo-K-1	1.16	1.22	1.2	1.14	1.08					0.915	0.924	0.901	0.976	0.501	0.616	0.56	0.67	0.974
EBC-1	0.207	0.199	0.18	0.178	0.171	0.829	0.809	0.85	0.843	0.108	0.098	0.0973	0.121					0.1
EKVX	0.989	0.83	0.822	0.917	0.804	0.863	0.973	1.07	0.846	0.787	0.793	0.801	0.665	0.554	0.442	0.5	0.618	0.804
EMC-BAC-2	0.729	0.727	0.655	0.643	0.707	0.77	0.803	0.78	0.747	0.975	0.98	1.09	0.935	0.301	0.322	0.375	0.298	1.04
EPLC-272H	0.944	0.986	0.869	0.895	0.822	0.964	1.06	0.946	0.962	0.688	0.469	0.845	0.669	0.34	0.322	0.315	0.398	0.73
H3255	0.763	0.76	0.959	0.717	0.735	0.637	0.721	0.629	0.689	0.92	0.881	0.797	0.792	0.285	0.331	0.325	0.348	0.897
HARA	0.991	0.968	0.927	1.1	0.988	0.871	0.871	0.923	0.917	0.751	0.878	0.6	0.738	0.239	0.281	0.299	0.28	0.756
HCC-15	0.85	0.804	0.819	0.832	0.776	0.881	0.949	1.04	0.912	0.948	1.04	0.998	0.981	0.637	0.799	0.66	0.65	1.11
HCC-44	0.788	0.864	0.832	0.859	0.744	0.972	0.849	0.933	0.852									
HCC-78	0.312	0.304	0.329	0.374	0.34	0.311	0.347	0.352	0.349	0.509	0.497	0.524	0.602	0.39	0.464	0.363	0.417	0.5
HCC-366	0.375	0.545	0.654	0.526	0.478	0.329	0.347	0.423	0.379	0.89	0.939	0.9	0.867	0.629	1.12	0.673	0.706	0.975
HCC-827	0.883	0.952		0.949	0.881	0.996	1.11	0.994	0.812	0.907	1.07	0.989	0.91	0.266	0.357	0.316	0.344	

Cell Line	relative viability ([1]; first compound 0.08 µM)	relative viability ([1]; first compound 0.253 µM)	relative viability ([1]; first compound 0.8 µM)	relative viability ([1]; first compound 2.53 µM)	relative viability ([1]; first compound 8 µM)	relative viability ([2]; first compound 0.01 µM)	relative viability ([2]; first compound 0.1 µM)	relative viability ([2]; first compound 0.3162 µM)	relative viability ([2]; first compound 1 µM)	relative viability ([3]; first compound 0.08 µM)	relative viability ([3]; first compound 0.253 µM)	relative viability ([3]; first compound 2.53 µM)	relative viability ([3]; first compound 8 µM)	relative viability ([4]; first compound 0.01 µM)	relative viability ([4]; first compound 0.1 µM)	relative viability ([4]; first compound 0.3162 µM)	relative viability ([4]; first compound 1 µM)	relative viability ([3]; first compound 0.8 µM)
HOP-62	0.926	0.982	0.882	0.748	0.915	1.11	1.37	1.2	0.707	0.974	1.23	1.06	0.945	0.66	0.593	0.701	0.747	1.02
IA-LM	0.868	0.747	0.84	0.939	0.644	0.862	0.667	0.637	0.69	1.01	1.28	1.2	0.99					1.14
LC-2-ad	0.442	0.506	0.444	0.445	0.407	0.921	0.944	0.925	0.912	0.895	0.9	0.899	0.9	0.528	0.586	0.418	0.893	0.894
LCLC-97TM1	0.405		0.37	0.344	0.265	0.246	0.238	0.25	0.292	0.927	0.821	0.999	0.868	0.877	0.848	1.09	0.815	1.02
LCLC-103H	0.946	0.93	0.914	1	0.872	0.984	0.994	0.896	0.978	0.704	0.744	0.627	0.71	0.499	0.462	0.549	0.586	0.717
LK-2	0.269	0.232	0.217	0.261	0.229	1.04	1.54	1.11	1.04	1.36	0.816	1.2	1.44	0.273	0.258	0.228	0.267	1.36
LOU-NH91	0.755	0.735		0.7	0.721	0.703	0.73	0.839	0.727	0.858	0.946	0.958	0.924	0.551	0.551	0.639	0.584	0.571
LU99A	0.661	0.571	0.513	0.524	0.498	0.592	0.671	0.576	0.441	0.795	0.782	0.767	0.749	0.52	0.756	0.594	0.663	0.78
LXF-289	0.781	0.893	0.834	0.837	0.78	1.12	0.963	1.02	1.03	0.96	1.03	1.01	0.94	0.213	0.214	0.231	0.229	0.94
NCI-H23	0.487		0.506	0.694	0.534	0.76	0.65	0.804	0.659	0.891	0.964	0.937	0.945	0.643	0.883	0.78	0.944	1.02
NCI-H522														0.901	0.852	1.04	1.16	
NCI-H1299	0.927	0.941	0.946	0.99	0.9	1.11	1.06	1.04	1.07	1.05	1.08	1.1	1.01					1.08
NCI-H1395						1.14	1.16	0.973	1	0.957	0.839	0.967	0.853	0.376	0.403	0.45	0.449	0.909
NCI-H1623										0.836	0.952	0.83	0.801	0.475	0.541	0.569	0.635	0.795
NCI-H1650	0.925	1.05		1.06	0.986					1.12	0.939	1.32	0.987	0.299	0.336	0.267	0.21	
NCI-H1703	0.635	0.61	0.685	0.647	0.491	0.317	0.277	0.287	0.244	0.294	0.33	0.403	0.401					
NCI-H1792	0.975	0.919	1.01	0.915	1.03	0.776	0.557	0.786	0.727					0.91	0.6	0.934	1.01	
NCI-H1793						0.863	0.779	0.754	0.722	0.709		0.606	0.621	0.419	0.376	0.381	0.461	0.677
NCI-H2342										0.931	0.9	1.21	1	0.334	0.314	0.295	0.325	0.9
SW 900										0.737	0.893	1.09	0.952	0.5	0.592	0.545	0.634	
